Laboratory results as given in PubChem BioAssay (NCI).
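GI50 = concentration required for 50% inhibition of growth. TGI is the concentration that stops growth completely.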

Assays:
Assay in all cases: inhibition of tumour cell growth, NCI panel, 384-well format
OVCAR-5 ovarian = system: OVCAR-5 ovarian
NCI-H23 lung = system: NCI-H23 lung
HOP-92 NSCLC = system: HOP-92 NSCLC
786-0 renal = system: 786-0 renal
A498 renal = system: A498 renal
COLO 205 colon = system: COLO 205 colon
SNB-75 CNS = system: SNB-75 CNS
SK-OV-3 ovarian = system: SK-OV-3 ovarian
HL-60(TB) leukemia = system: HL-60(TB) leukemia
CCRF-CEM leukemia = system: CCRF-CEM leukemia
RPMI-8226 leukemia = system: RPMI-8226 leukemia
M14 melanoma = system: M14 melanoma
PC-3 prostate = system: PC-3 prostate
EKVX NSCLC = system: EKVX NSCLC
SNB-19 CNS = system: SNB-19 CNS
SW-620 colon = system: SW-620 colon
DU-145 prostate = system: DU-145 prostate
UACC-62 melanoma = system: UACC-62 melanoma
SF-539 CNS = system: SF-539 CNS
MDA-MB-435 melanoma = system: MDA-MB-435 melanoma
UACC-257 melanoma = system: UACC-257 melanoma
MCF7 breast = system: MCF7 breast
HCC-2998 colon = system: HCC-2998 colon
NCI-H226 lung = system: NCI-H226 lung
NCI-H322M lung = system: NCI-H322M lung
OVCAR-8 ovarian = system: OVCAR-8 ovarian
HOP-62 NSCLC = system: HOP-62 NSCLC
K-562 leukemia = system: K-562 leukemia
OVCAR-4 ovarian = system: OVCAR-4 ovarian
MDA-MB-468 breast = system: MDA-MB-468 breast
SN12C renal = system: SN12C renal
SF-295 CNS = system: SF-295 CNS
HCT-15 colon = system: HCT-15 colon
A549 NSCLC = system: A549 NSCLC
SF-268 CNS = system: SF-268 CNS
HS 578T breast = system: HS 578T breast
U251 glioblastoma = system: U251 glioblastoma
BT-549 breast = system: BT-549 breast
SR leukemia = system: SR leukemia
T-47D breast = system: T-47D breast
MOLT-4 leukemia = system: MOLT-4 leukemia
MALME-3M melanoma = system: MALME-3M melanoma
TK-10 renal = system: TK-10 renal
ACHN renal = system: ACHN renal
LOX IMVI melanoma = system: LOX IMVI melanoma
UO-31 renal = system: UO-31 renal
NCI-H522 lung = system: NCI-H522 lung
IGROV1 ovarian = system: IGROV1 ovarian
MDA-MB-231 breast = system: MDA-MB-231 breast
RXF 393 renal = system: RXF 393 renal
NCI-H460 NSCLC = system: NCI-H460 NSCLC
HT29 colon = system: HT29 colon
OVCAR-3 ovarian = system: OVCAR-3 ovarian
KM12 colon = system: KM12 colon
SK-MEL-28 melanoma = system: SK-MEL-28 melanoma
NCI/ADR-RES ovarian = system: NCI/ADR-RES ovarian
CAKI-1 renal = system: CAKI-1 renal
SK-MEL-5 melanoma = system: SK-MEL-5 melanoma

c1ccc(-c2nn3c(c2-c2ccnc4cc(OCCN5CCOCC5)ccc24)CCC3)nc1
GI50 (OVCAR-5 ovarian): > 100 µM
TGI (OVCAR-5 ovarian): > 100 µM
GI50 (NCI-H23 lung): > 100 µM
TGI (NCI-H23 lung): > 100 µM
GI50 (HOP-92 NSCLC): 85.6 µM
TGI (HOP-92 NSCLC): > 100 µM
GI50 ([…]-0 renal): > 100 µM
TGI (786-0 renal): > 100 µM
GI50 (A498 renal): > 100 µM
TGI (A498 renal): > 100 µM
GI50 (COLO 205 colon): 37.9 µM
TGI (COLO 205 colon): > 100 µM
GI50 (SNB-75 CNS): > 100 µM
TGI (SNB-75 CNS): > 100 µM
GI50 (SK-OV-3 ovarian): > 100 µM
TGI (SK-OV-3 ovarian): > 100 µM
GI50 (HL-60(TB) leukemia): > 100 µM
TGI (HL-60(TB) leukemia): > 100 µM
GI50 (CCRF-CEM leukemia): 39.3 µM
TGI (CCRF-CEM leukemia): > 100 µM
GI50 (RPMI-8226 leukemia): 48 µM
TGI (RPMI-8226 leukemia): > 100 µM
GI50 (M14 melanoma): > 100 µM
TGI (M14 melanoma): > 100 µM
GI50 (PC-3 prostate): > 100 µM
TGI (PC-3 prostate): > 100 µM
GI50 (EKVX NSCLC): > 100 µM
TGI (EKVX NSCLC): > 100 µM
GI50 (SNB-19 CNS): > 100 µM
TGI (SNB-19 CNS): > 100 µM
GI50 (SW-620 colon): > 100 µM
TGI (SW-620 colon): > 100 µM
GI50 (DU-145 prostate): > 100 µM
TGI (DU-145 prostate): > 100 µM
GI50 (UACC-62 melanoma): > 100 µM
TGI (UACC-62 melanoma): > 100 µM
GI50 (SF-539 CNS): > 100 µM
TGI (SF-539 CNS): > 100 µM
GI50 (MDA-MB-435 melanoma): > 100 µM
TGI (MDA-MB-435 melanoma): > 100 µM
GI50 (UACC-257 melanoma): > 100 µM
TGI (UACC-257 melanoma): > 100 µM
GI50 (MCF7 breast): 24.9 µM
TGI (MCF7 breast): > 100 µM
GI50 (HCC-2998 colon): > 100 µM
TGI (HCC-2998 colon): > 100 µM
GI50 (NCI-H226 lung): > 100 µM
TGI (NCI-H226 lung): > 100 µM
GI50 (NCI-H322M lung): > 100 µM
TGI (NCI-H322M lung): > 100 µM
GI50 (OVCAR-8 ovarian): > 100 µM
TGI (OVCAR-8 ovarian): > 100 µM
GI50 (HOP-62 NSCLC): > 100 µM
TGI (HOP-62 NSCLC): > 100 µM
GI50 (K-562 leukemia): 23.4 µM
TGI (K-562 leukemia): > 100 µM
GI50 (OVCAR-4 ovarian): > 100 µM
TGI (OVCAR-4 ovarian): > 100 µM
GI50 (MDA-MB-468 breast): 40.3 µM
TGI (MDA-MB-468 breast): > 100 µM
GI50 (SN12C renal): > 100 µM
TGI (SN12C renal): > 100 µM
GI50 (SF-295 CNS): > 100 µM
TGI (SF-295 CNS): > 100 µM
GI50 (HCT-15 colon): 37.3 µM
TGI (HCT-15 colon): > 100 µM
GI50 (A549 NSCLC): 29.9 µM
TGI (A549 NSCLC): > 100 µM
GI50 (SF-268 CNS): > 100 µM
TGI (SF-268 CNS): > 100 µM
GI50 (HS 578T breast): > 100 µM
TGI (HS 578T breast): > 100 µM
GI50 (U251 glioblastoma): > 100 µM
TGI (U251 glioblastoma): > 100 µM
GI50 (BT-549 breast): > 100 µM
TGI (BT-549 breast): > 100 µM
GI50 (SR leukemia): 40.3 µM
TGI (SR leukemia): > 100 µM
GI50 (T-47D breast): > 100 µM
TGI (T-47D breast): > 100 µM
GI50 (MOLT-4 leukemia): 4.62 µM
TGI (MOLT-4 leukemia): 17.4 µM
GI50 (MALME-3M melanoma): > 100 µM
TGI (MALME-3M melanoma): > 100 µM
GI50 (TK-10 renal): > 100 µM
TGI (TK-10 renal): > 100 µM
GI50 (ACHN renal): 66.9 µM
TGI (ACHN renal): > 100 µM
GI50 (LOX IMVI melanoma): > 100 µM
TGI (LOX IMVI melanoma): > 100 µM
GI50 (UO-31 renal): > 100 µM
TGI (UO-31 renal): > 100 µM
GI50 (NCI-H522 lung): 58.2 µM
TGI (NCI-H522 lung): > 100 µM
GI50 (IGROV1 ovarian): > 100 µM
TGI (IGROV1 ovarian): > 100 µM
GI50 (MDA-MB-231 breast): > 100 µM
TGI (MDA-MB-231 breast): > 100 µM
GI50 (RXF 393 renal): > 100 µM
TGI (RXF 393 renal): > 100 µM
GI50 (NCI-H460 NSCLC): 51.3 µM
TGI (NCI-H460 NSCLC): > 100 µM
GI50 (HT29 colon): 48.2 µM
TGI (HT29 colon): > 100 µM
GI50 (OVCAR-3 ovarian): > 100 µM
TGI (OVCAR-3 ovarian): > 100 µM
GI50 (KM12 colon): 85.1 µM
TGI (KM12 colon): > 100 µM
GI50 (SK-MEL-28 melanoma): > 100 µM
TGI (SK-MEL-28 melanoma): > 100 µM
GI50 (NCI/ADR-RES ovarian): > 100 µM
TGI (NCI/ADR-RES ovarian): > 100 µM
GI50 (CAKI-1 renal): 62.4 µM
TGI (CAKI-1 renal): > 100 µM
GI50 (SK-MEL-5 melanoma): 16.2 µM
TGI (SK-MEL-5 melanoma): > 100 µM
